{"source": "paper PMC9823097", "about": "“Dysregulation of PRMT5 in chronic lymphocytic leukemia promotes progression with high risk of Richter’s transformation” (Nature Communications, 2023)", "key": {"[1]": {"system": "HG3 cells", "assay": "Cell growth curves over 12 days, HG3", "format": "cell-based", "conditions": "for anti-proliferative potency compared to PRT382: HG3", "protocol": "(§1) Live cells/mL were counted on days 3, 6, 10, and 12. […] The split factor was calculated at indicated time points by dividing the counted cells/mL by 3E5. Cell growth was extrapolated over time by multiplying the subsequent cell count by the previous split factor. Cell growth is plotted as fold change relative to DMSO-treated cells."}, "[2]": {"system": "Mec-1 cells", "assay": "Cell growth curves over 12 days, Mec-1", "format": "cell-based", "conditions": "for anti-proliferative potency compared to PRT382: Mec-1", "protocol": "as §1"}}, "data": [{"compound": "Nc1nc2cc(CC[C@H]3C[C@@H](n4ccc5c(N)ncnc54)[C@H](O)[C@@H]3O)ccc2cc1Br", "note": "[JNJ-64619178]", "values": [{"measurement": "Rep 1 Live Cells [Fold Change]", "setting": "[1]; HG3, 1 nM, day 0", "value": 1, "unit": "Fold Change"}, {"measurement": "Rep 2 Live Cells [Fold Change]", "setting": "[1]; HG3, 1 nM, day 0", "value": 1, "unit": "Fold Change"}, {"measurement": "Rep 1 Live Cells [Fold Change]", "setting": "[1]; HG3, 1 nM, day 3", "value": 6.233, "unit": "Fold Change"}, {"measurement": "Rep 2 Live Cells [Fold Change]", "setting": "[1]; HG3, 1 nM, day 3", "value": 6.733, "unit": "Fold Change"}, {"measurement": "Rep 1 Live Cells [Fold Change]", "setting": "[1]; HG3, 1 nM, day 6", "value": 33.0367, "unit": "Fold Change"}, {"measurement": "Rep 2 Live Cells [Fold Change]", "setting": "[1]; HG3, 1 nM, day 6", "value": 39.5022, "unit": "Fold Change"}, {"measurement": "Rep 1 Live Cells [Fold Change]", "setting": "[1]; HG3, 1 nM, day 10", "value": 290.723, "unit": "Fold Change"}, {"measurement": "Rep 2 Live Cells [Fold Change]", "setting": "[1]; HG3, 1 nM, day 10", "value": 314.043, "unit": "Fold Change"}, {"measurement": "Rep 1 Live Cells [Fold Change]", "setting": "[1]; HG3, 1 nM, day 12", "value": 802.395, "unit": "Fold Change"}, {"measurement": "Rep 2 Live Cells [Fold Change]", "setting": "[1]; HG3, 1 nM, day 12", "value": 1088.68, "unit": "Fold Change"}, {"measurement": "Rep 1 Live Cells [Fold Change]", "setting": "[1]; HG3, 10 nM, day 0", "value": 1, "unit": "Fold Change"}, {"measurement": "Rep 2 Live Cells [Fold Change]", "setting": "[1]; HG3, 10 nM, day 0", "value": 1, "unit": "Fold Change"}, {"measurement": "Rep 1 Live Cells [Fold Change]", "setting": "[1]; HG3, 10 nM, day 3", "value": 4.733, "unit": "Fold Change"}, {"measurement": "Rep 2 Live Cells [Fold Change]", "setting": "[1]; HG3, 10 nM, day 3", "value": 5.9, "unit": "Fold Change"}, {"measurement": "Rep 1 Live Cells [Fold Change]", "setting": "[1]; HG3, 10 nM, day 6", "value": 4.86, "unit": "Fold Change"}, {"measurement": "Rep 2 Live Cells [Fold Change]", "setting": "[1]; HG3, 10 nM, day 6", "value": 7.375, "unit": "Fold Change"}, {"measurement": "Rep 1 Live Cells [Fold Change]", "setting": "[1]; HG3, 10 nM, day 10", "value": 4.276, "unit": "Fold Change"}, {"measurement": "Rep 2 Live Cells [Fold Change]", "setting": "[1]; HG3, 10 nM, day 10", "value": 8.039, "unit": "Fold Change"}, {"measurement": "Rep 1 Live Cells [Fold Change]", "setting": "[1]; HG3, 10 nM, day 12", "value": 4.945, "unit": "Fold Change"}, {"measurement": "Rep 2 Live Cells [Fold Change]", "setting": "[1]; HG3, 10 nM, day 12", "value": 8.633, "unit": "Fold Change"}, {"measurement": "Rep 1 Live Cells [Fold Change]", "setting": "[1]; HG3, 100 nM, day 0", "value": 1, "unit": "Fold Change"}, {"measurement": "Rep 2 Live Cells [Fold Change]", "setting": "[1]; HG3, 100 nM, day 0", "value": 1, "unit": "Fold Change"}, {"measurement": "Rep 1 Live Cells [Fold Change]", "setting": "[1]; HG3, 100 nM, day 3", "value": 4.133, "unit": "Fold Change"}, {"measurement": "Rep 2 Live Cells [Fold Change]", "setting": "[1]; HG3, 100 nM, day 3", "value": 5.6, "unit": "Fold Change"}, {"measurement": "Rep 1 Live Cells [Fold Change]", "setting": "[1]; HG3, 100 nM, day 6", "value": 4.064, "unit": "Fold Change"}, {"measurement": "Rep 2 Live Cells [Fold Change]", "setting": "[1]; HG3, 100 nM, day 6", "value": 5.619, "unit": "Fold Change"}, {"measurement": "Rep 1 Live Cells [Fold Change]", "setting": "[1]; HG3, 100 nM, day 10", "value": 2.5, "unit": "Fold Change"}, {"measurement": "Rep 2 Live Cells [Fold Change]", "setting": "[1]; HG3, 100 nM, day 10", "value": 4.6354, "unit": "Fold Change"}, {"measurement": "Rep 1 Live Cells [Fold Change]", "setting": "[1]; HG3, 100 nM, day 12", "value": 1.958, "unit": "Fold Change"}, {"measurement": "Rep 2 Live Cells [Fold Change]", "setting": "[1]; HG3, 100 nM, day 12", "value": 5.387, "unit": "Fold Change"}, {"measurement": "Rep 1 Live Cells [Fold Change]", "setting": "[1]; HG3, 1 µM, day 0", "value": 1, "unit": "Fold Change"}, {"measurement": "Rep 2 Live Cells [Fold Change]", "setting": "[1]; HG3, 1 µM, day 0", "value": 1, "unit": "Fold Change"}, {"measurement": "Rep 1 Live Cells [Fold Change]", "setting": "[1]; HG3, 1 µM, day 3", "value": 1.6, "unit": "Fold Change"}, {"measurement": "Rep 2 Live Cells [Fold Change]", "setting": "[1]; HG3, 1 µM, day 3", "value": 2.303, "unit": "Fold Change"}, {"measurement": "Rep 1 Live Cells [Fold Change]", "setting": "[1]; HG3, 1 µM, day 6", "value": 1.024, "unit": "Fold Change"}, {"measurement": "Rep 2 Live Cells [Fold Change]", "setting": "[1]; HG3, 1 µM, day 6", "value": 1.536, "unit": "Fold Change"}, {"measurement": "Rep 1 Live Cells [Fold Change]", "setting": "[1]; HG3, 1 µM, day 10", "value": 3.369, "unit": "Fold Change"}, {"measurement": "Rep 2 Live Cells [Fold Change]", "setting": "[1]; HG3, 1 µM, day 10", "value": 0.4381, "unit": "Fold Change"}, {"measurement": "Rep 1 Live Cells [Fold Change]", "setting": "[1]; HG3, 1 µM, day 12", "value": 2.347, "unit": "Fold Change"}, {"measurement": "Rep 2 Live Cells [Fold Change]", "setting": "[1]; HG3, 1 µM, day 12", "value": 3.411, "unit": "Fold Change"}, {"measurement": "anti-proliferative potency compared to PRT382", "setting": "[1]; high doses (1µM)", "value": "similar"}, {"measurement": "anti-proliferative potency compared to PRT382", "setting": "[1]; lower doses (10nM, 100nM)", "value": "more potent"}, {"measurement": "Rep 1 Live Cells [Fold Change]", "setting": "[2]; Mec-1, 1 nM, day 0", "value": 1, "unit": "Fold Change"}, {"measurement": "Rep 2 Live Cells [Fold Change]", "setting": "[2]; Mec-1, 1 nM, day 0", "value": 1, "unit": "Fold Change"}, {"measurement": "Rep 1 Live Cells [Fold Change]", "setting": "[2]; Mec-1, 1 nM, day 3", "value": 6.73, "unit": "Fold Change"}, {"measurement": "Rep 2 Live Cells [Fold Change]", "setting": "[2]; Mec-1, 1 nM, day 3", "value": 5.77, "unit": "Fold Change"}, {"measurement": "Rep 1 Live Cells [Fold Change]", "setting": "[2]; Mec-1, 1 nM, day 6", "value": 33.4, "unit": "Fold Change"}, {"measurement": "Rep 2 Live Cells [Fold Change]", "setting": "[2]; Mec-1, 1 nM, day 6", "value": 34.4, "unit": "Fold Change"}, {"measurement": "Rep 1 Live Cells [Fold Change]", "setting": "[2]; Mec-1, 1 nM, day 10", "value": 194, "unit": "Fold Change"}, {"measurement": "Rep 2 Live Cells [Fold Change]", "setting": "[2]; Mec-1, 1 nM, day 10", "value": 282, "unit": "Fold Change"}, {"measurement": "Rep 1 Live Cells [Fold Change]", "setting": "[2]; Mec-1, 1 nM, day 12", "value": 737, "unit": "Fold Change"}, {"measurement": "Rep 2 Live Cells [Fold Change]", "setting": "[2]; Mec-1, 1 nM, day 12", "value": 940, "unit": "Fold Change"}, {"measurement": "Rep 1 Live Cells [Fold Change]", "setting": "[2]; Mec-1, 10 nM, day 0", "value": 1, "unit": "Fold Change"}, {"measurement": "Rep 2 Live Cells [Fold Change]", "setting": "[2]; Mec-1, 10 nM, day 0", "value": 1, "unit": "Fold Change"}, {"measurement": "Rep 1 Live Cells [Fold Change]", "setting": "[2]; Mec-1, 10 nM, day 3", "value": 4.7, "unit": "Fold Change"}, {"measurement": "Rep 2 Live Cells [Fold Change]", "setting": "[2]; Mec-1, 10 nM, day 3", "value": 4.73, "unit": "Fold Change"}, {"measurement": "Rep 1 Live Cells [Fold Change]", "setting": "[2]; Mec-1, 10 nM, day 6", "value": 4.72, "unit": "Fold Change"}, {"measurement": "Rep 2 Live Cells [Fold Change]", "setting": "[2]; Mec-1, 10 nM, day 6", "value": 5.92, "unit": "Fold Change"}, {"measurement": "Rep 1 Live Cells [Fold Change]", "setting": "[2]; Mec-1, 10 nM, day 10", "value": 4.93, "unit": "Fold Change"}, {"measurement": "Rep 2 Live Cells [Fold Change]", "setting": "[2]; Mec-1, 10 nM, day 10", "value": 4.62, "unit": "Fold Change"}, {"measurement": "Rep 1 Live Cells [Fold Change]", "setting": "[2]; Mec-1, 10 nM, day 12", "value": 3.86, "unit": "Fold Change"}, {"measurement": "Rep 2 Live Cells [Fold Change]", "setting": "[2]; Mec-1, 10 nM, day 12", "value": 2.38, "unit": "Fold Change"}, {"measurement": "Rep 1 Live Cells [Fold Change]", "setting": "[2]; Mec-1, 100 nM, day 0", "value": 1, "unit": "Fold Change"}, {"measurement": "Rep 2 Live Cells [Fold Change]", "setting": "[2]; Mec-1, 100 nM, day 0", "value": 1, "unit": "Fold Change"}, {"measurement": "Rep 1 Live Cells [Fold Change]", "setting": "[2]; Mec-1, 100 nM, day 3", "value": 4.17, "unit": "Fold Change"}, {"measurement": "Rep 2 Live Cells [Fold Change]", "setting": "[2]; Mec-1, 100 nM, day 3", "value": 4.67, "unit": "Fold Change"}, {"measurement": "Rep 1 Live Cells [Fold Change]", "setting": "[2]; Mec-1, 100 nM, day 6", "value": 3.53, "unit": "Fold Change"}, {"measurement": "Rep 2 Live Cells [Fold Change]", "setting": "[2]; Mec-1, 100 nM, day 6", "value": 4.53, "unit": "Fold Change"}, {"measurement": "Rep 1 Live Cells [Fold Change]", "setting": "[2]; Mec-1, 100 nM, day 10", "value": 2.56, "unit": "Fold Change"}, {"measurement": "Rep 2 Live Cells [Fold Change]", "setting": "[2]; Mec-1, 100 nM, day 10", "value": 2.9, "unit": "Fold Change"}, {"measurement": "Rep 1 Live Cells [Fold Change]", "setting": "[2]; Mec-1, 100 nM, day 12", "value": 1.15, "unit": "Fold Change"}, {"measurement": "Rep 2 Live Cells [Fold Change]", "setting": "[2]; Mec-1, 100 nM, day 12", "value": 1.27, "unit": "Fold Change"}, {"measurement": "Rep 1 Live Cells [Fold Change]", "setting": "[2]; Mec-1, 1 µM, day 0", "value": 1, "unit": "Fold Change"}, {"measurement": "Rep 2 Live Cells [Fold Change]", "setting": "[2]; Mec-1, 1 µM, day 0", "value": 1, "unit": "Fold Change"}, {"measurement": "Rep 1 Live Cells [Fold Change]", "setting": "[2]; Mec-1, 1 µM, day 3", "value": 1.48, "unit": "Fold Change"}, {"measurement": "Rep 2 Live Cells [Fold Change]", "setting": "[2]; Mec-1, 1 µM, day 3", "value": 1.38, "unit": "Fold Change"}, {"measurement": "Rep 1 Live Cells [Fold Change]", "setting": "[2]; Mec-1, 1 µM, day 6", "value": 0.841, "unit": "Fold Change"}, {"measurement": "Rep 2 Live Cells [Fold Change]", "setting": "[2]; Mec-1, 1 µM, day 6", "value": 2.27, "unit": "Fold Change"}, {"measurement": "Rep 1 Live Cells [Fold Change]", "setting": "[2]; Mec-1, 1 µM, day 10", "value": 1.28, "unit": "Fold Change"}, {"measurement": "Rep 2 Live Cells [Fold Change]", "setting": "[2]; Mec-1, 1 µM, day 10", "value": 1.57, "unit": "Fold Change"}, {"measurement": "Rep 1 Live Cells [Fold Change]", "setting": "[2]; Mec-1, 1 µM, day 12", "value": 0.808, "unit": "Fold Change"}, {"measurement": "Rep 2 Live Cells [Fold Change]", "setting": "[2]; Mec-1, 1 µM, day 12", "value": 0.765, "unit": "Fold Change"}, {"measurement": "anti-proliferative potency compared to PRT382", "setting": "[2]; high doses (1µM)", "value": "similar"}, {"measurement": "anti-proliferative potency compared to PRT382", "setting": "[2]; lower doses (10nM, 100nM)", "value": "more potent"}]}]}
